Reference: the kinase profiling compilation of Christmann-Franck et al. (2016)

Assays:
Assay in all cases: KINOMEscan competition binding
Settings in all cases: compound 10.0 µM
PIK3C2B (human) = PIK3C2B (human) (UniProt O00750)
PIK3C2G (human) = PIK3C2G (human) (UniProt O75747)
[1] = system: EGFR (human), P00533 [T790M]
PRKCH (human) = PRKCH (human) (UniProt P24723)
MAPK14 (human) = MAPK14 (human) (UniProt Q16539)
MAP3K2 (human) = MAP3K2 (human) (UniProt Q9Y2U5)
MAP3K5 (human) = MAP3K5 (human) (UniProt Q99683)
TRPM6 (human) = TRPM6 (human) (UniProt Q9BX84)
MST1R (human) = MST1R (human) (UniProt Q04912)
CSNK2A1 (human) = CSNK2A1 (human) (UniProt P68400)
KIT (human) = KIT (human) (UniProt P10721)
TBK1 (human) = TBK1 (human) (UniProt Q9UHD2)
TNK2 (human) = TNK2 (human) (UniProt Q07912)
MAP3K9 (human) = MAP3K9 (human) (UniProt P80192)
EIF2AK2 (human) = EIF2AK2 (human) (UniProt P19525)
PIM2 (human) = PIM2 (human) (UniProt Q9P1W9)
NEK4 (human) = NEK4 (human) (UniProt P51957)
Chain of NEK4 (human) (P51957 whole entry, looked up): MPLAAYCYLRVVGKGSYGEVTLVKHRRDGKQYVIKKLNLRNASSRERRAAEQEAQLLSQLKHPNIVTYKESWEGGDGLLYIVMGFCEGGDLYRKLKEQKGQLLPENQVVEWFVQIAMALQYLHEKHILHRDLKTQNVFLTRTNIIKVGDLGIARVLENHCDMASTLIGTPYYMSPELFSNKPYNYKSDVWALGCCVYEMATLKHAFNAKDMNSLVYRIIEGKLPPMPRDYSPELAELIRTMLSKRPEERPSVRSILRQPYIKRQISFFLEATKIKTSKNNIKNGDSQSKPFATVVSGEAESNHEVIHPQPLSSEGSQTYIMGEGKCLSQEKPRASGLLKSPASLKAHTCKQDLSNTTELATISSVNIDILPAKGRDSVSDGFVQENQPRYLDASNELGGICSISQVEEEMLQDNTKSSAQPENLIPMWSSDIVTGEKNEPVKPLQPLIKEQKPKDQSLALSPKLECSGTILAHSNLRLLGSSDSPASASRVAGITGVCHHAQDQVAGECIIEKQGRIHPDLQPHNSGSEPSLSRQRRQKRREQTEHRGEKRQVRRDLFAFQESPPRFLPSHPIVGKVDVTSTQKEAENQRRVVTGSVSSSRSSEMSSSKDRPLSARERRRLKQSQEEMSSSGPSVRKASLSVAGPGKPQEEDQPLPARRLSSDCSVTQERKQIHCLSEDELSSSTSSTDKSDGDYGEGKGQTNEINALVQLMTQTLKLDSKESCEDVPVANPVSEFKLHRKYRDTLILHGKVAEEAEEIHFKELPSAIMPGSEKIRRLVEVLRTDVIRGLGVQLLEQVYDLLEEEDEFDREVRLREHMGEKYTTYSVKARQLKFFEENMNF

CSNK1A1L (human) = CSNK1A1L (human) (UniProt Q8N752)
Chain of CSNK1A1L (human) (Q8N752 whole entry, looked up): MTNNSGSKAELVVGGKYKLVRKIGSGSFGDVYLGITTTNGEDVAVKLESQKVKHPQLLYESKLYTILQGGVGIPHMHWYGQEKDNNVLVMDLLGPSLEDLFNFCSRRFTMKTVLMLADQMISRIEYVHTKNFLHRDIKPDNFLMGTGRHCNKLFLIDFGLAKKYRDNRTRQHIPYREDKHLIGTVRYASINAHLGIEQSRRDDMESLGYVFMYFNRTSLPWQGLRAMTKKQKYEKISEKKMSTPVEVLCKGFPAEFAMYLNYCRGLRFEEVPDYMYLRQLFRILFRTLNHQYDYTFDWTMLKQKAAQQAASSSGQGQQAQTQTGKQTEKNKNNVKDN

RPS6KA1 KD2 (human) = RPS6KA1 KD2 (human) (UniProt Q15418)
CSNK1G3 (human) = CSNK1G3 (human) (UniProt Q9Y6M4)
MAP3K13 (human) = MAP3K13 (human) (UniProt O43283)
Chain of MAP3K13 (human) (O43283 whole entry, looked up): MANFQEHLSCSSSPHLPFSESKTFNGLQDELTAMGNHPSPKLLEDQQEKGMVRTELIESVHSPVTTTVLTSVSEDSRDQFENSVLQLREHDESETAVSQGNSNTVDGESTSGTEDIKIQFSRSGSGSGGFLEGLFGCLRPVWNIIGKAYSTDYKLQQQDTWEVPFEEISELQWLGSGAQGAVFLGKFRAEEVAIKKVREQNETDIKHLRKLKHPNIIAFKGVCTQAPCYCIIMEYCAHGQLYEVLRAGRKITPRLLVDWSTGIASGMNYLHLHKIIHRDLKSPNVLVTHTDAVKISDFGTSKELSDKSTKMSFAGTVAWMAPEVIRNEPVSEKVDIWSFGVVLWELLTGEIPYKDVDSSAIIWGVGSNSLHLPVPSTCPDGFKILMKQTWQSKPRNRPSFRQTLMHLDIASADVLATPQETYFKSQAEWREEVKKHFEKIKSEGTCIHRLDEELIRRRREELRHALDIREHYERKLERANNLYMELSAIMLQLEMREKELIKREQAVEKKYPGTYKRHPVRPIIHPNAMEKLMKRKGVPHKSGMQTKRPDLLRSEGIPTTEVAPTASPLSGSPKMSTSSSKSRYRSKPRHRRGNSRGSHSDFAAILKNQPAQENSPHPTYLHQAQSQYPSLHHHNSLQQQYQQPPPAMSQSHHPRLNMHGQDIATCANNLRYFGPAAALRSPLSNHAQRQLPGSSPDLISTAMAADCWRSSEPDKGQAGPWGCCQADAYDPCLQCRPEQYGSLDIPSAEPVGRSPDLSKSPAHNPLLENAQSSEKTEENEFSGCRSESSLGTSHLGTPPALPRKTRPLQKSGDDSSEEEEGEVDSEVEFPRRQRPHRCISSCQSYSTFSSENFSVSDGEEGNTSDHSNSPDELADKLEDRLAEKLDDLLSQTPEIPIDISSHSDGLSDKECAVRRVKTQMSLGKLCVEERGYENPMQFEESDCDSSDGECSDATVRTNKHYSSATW

PIP5K1A (human) = PIP5K1A (human) (UniProt Q99755)
Chain of PIP5K1A (human) (Q99755 whole entry, looked up): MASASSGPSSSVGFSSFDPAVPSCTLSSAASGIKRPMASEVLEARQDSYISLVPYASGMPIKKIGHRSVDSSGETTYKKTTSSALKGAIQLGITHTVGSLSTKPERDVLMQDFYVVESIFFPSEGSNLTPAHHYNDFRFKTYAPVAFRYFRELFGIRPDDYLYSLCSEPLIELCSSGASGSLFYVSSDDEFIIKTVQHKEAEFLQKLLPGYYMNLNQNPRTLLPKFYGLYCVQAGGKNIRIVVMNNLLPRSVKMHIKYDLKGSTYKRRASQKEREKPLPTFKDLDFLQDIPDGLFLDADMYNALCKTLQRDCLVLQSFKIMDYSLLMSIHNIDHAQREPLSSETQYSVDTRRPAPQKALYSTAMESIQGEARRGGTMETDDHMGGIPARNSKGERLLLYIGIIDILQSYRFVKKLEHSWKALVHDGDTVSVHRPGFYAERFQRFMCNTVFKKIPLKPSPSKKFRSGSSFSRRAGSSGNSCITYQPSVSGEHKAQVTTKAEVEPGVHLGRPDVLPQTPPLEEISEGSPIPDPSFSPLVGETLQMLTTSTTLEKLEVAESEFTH

INSR (human) = INSR (human) (UniProt P06213)
MARK3 (human) = MARK3 (human) (UniProt P27448)
MAP3K12 (human) = MAP3K12 (human) (UniProt Q12852)
Chain of MAP3K12 (human) (Q12852 whole entry, looked up): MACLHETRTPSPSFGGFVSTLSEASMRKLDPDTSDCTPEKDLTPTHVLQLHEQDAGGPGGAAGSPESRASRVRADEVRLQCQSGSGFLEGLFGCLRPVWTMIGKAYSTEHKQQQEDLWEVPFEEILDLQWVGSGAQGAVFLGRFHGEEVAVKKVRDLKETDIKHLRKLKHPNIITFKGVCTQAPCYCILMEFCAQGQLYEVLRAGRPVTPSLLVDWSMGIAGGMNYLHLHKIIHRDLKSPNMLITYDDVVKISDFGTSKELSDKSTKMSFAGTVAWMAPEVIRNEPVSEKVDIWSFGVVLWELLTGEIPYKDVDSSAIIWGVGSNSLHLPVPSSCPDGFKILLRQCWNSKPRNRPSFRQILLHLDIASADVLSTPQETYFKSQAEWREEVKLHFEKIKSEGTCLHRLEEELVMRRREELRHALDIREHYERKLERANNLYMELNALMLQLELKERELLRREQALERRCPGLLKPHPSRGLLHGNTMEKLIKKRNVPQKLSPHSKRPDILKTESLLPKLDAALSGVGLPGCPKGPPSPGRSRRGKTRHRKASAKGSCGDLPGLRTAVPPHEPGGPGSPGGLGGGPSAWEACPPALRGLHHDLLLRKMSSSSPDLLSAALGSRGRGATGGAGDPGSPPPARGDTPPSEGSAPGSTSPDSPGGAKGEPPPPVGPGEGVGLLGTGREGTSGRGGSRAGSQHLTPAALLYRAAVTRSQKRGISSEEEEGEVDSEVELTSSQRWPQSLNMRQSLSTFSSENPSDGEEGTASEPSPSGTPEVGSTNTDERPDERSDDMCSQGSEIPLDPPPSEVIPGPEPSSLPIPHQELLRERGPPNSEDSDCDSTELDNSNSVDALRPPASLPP

SRC (human) = SRC (human) (UniProt P12931)
LIMK1 (human) = LIMK1 (human) (UniProt P53667)
Chain of LIMK1 (human) (P53667 whole entry, looked up): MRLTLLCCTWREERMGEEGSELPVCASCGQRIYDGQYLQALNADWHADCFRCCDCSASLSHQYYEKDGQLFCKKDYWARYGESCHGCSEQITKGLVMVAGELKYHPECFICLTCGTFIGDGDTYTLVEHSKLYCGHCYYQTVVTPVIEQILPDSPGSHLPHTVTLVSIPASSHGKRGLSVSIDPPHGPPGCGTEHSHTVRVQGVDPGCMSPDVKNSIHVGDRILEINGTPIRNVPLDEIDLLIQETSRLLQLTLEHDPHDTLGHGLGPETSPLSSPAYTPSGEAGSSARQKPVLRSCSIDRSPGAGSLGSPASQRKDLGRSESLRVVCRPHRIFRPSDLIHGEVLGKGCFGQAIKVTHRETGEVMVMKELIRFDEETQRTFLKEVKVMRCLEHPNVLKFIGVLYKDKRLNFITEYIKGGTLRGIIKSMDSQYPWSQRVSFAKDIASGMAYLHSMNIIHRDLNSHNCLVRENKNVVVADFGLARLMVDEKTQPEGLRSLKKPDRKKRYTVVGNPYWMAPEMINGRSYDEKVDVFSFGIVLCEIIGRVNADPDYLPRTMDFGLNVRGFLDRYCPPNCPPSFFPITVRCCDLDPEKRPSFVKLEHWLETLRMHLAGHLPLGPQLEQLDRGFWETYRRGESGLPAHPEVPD

RET (human) = RET (human) (UniProt P07949)
MAPK9 (human) = MAPK9 (human) (UniProt P45984)
[2] = system: MET (human), P08581 [Y1235D]
ERBB3 (human) = ERBB3 (human) (UniProt P21860)
FGFR3 (human) = FGFR3 (human) (UniProt P22607)
MAPK13 (human) = MAPK13 (human) (UniProt O15264)

Chain of MAP3K2 (human) (Q9Y2U5 whole entry, looked up): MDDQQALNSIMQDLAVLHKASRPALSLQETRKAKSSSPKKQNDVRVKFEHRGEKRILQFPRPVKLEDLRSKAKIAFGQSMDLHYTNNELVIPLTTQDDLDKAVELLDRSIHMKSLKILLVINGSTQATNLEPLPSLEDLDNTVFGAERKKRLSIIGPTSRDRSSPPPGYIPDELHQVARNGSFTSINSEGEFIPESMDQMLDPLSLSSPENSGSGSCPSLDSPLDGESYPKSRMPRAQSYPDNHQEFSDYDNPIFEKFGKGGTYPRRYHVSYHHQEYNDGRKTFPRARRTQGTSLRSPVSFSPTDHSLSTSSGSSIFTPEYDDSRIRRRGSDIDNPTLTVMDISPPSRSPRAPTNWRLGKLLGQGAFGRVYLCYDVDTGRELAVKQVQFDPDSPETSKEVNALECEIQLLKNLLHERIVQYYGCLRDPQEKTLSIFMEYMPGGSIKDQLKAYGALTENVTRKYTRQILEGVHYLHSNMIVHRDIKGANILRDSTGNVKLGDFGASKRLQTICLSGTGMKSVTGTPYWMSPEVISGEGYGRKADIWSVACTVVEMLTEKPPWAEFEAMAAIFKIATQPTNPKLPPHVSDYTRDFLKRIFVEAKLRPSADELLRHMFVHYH

Row | Structure (SMILES) | kinase still bound, per cent of control (PIK3C2B (human)) [%] | kinase still bound, per cent of control (PIK3C2G (human)) [%] | kinase still bound, per cent of control [1] [%] | kinase still bound, per cent of control (PRKCH (human)) [%] | kinase still bound, per cent of control (MAPK14 (human)) [%] | kinase still bound, per cent of control (MAP3K2 (human)) [%] | kinase still bound, per cent of control (MAP3K5 (human)) [%] | kinase still bound, per cent of control (TRPM6 (human)) [%] | kinase still bound, per cent of control (MST1R (human)) [%] | kinase still bound, per cent of control (CSNK2A1 (human)) [%] | kinase still bound, per cent of control (KIT (human)) [%] | kinase still bound, per cent of control (TBK1 (human)) [%] | kinase still bound, per cent of control (TNK2 (human)) [%] | kinase still bound, per cent of control (MAP3K9 (human)) [%] | kinase still bound, per cent of control (EIF2AK2 (human)) [%] | kinase still bound, per cent of control (PIM2 (human)) [%] | kinase still bound, per cent of control (NEK4 (human)) [%] | kinase still bound, per cent of control (CSNK1A1L (human)) [%] | kinase still bound, per cent of control (RPS6KA1 KD2 (human)) [%] | kinase still bound, per cent of control (CSNK1G3 (human)) [%] | also measured
1 | COc1cc2ncnc(-n3nc(-c4ccccn4)nc3N)c2cc1OC | 0.35 | 8.2 | 67 | 100 | 50 | 33 | 100 | 61 | 100 | 4.4 | 10 | 24 | 54 | 70 | 21 | 78 | 41 | 32 | 14 | 20 | kinase still bound, per cent of control (MAP3K13 (human)): 96%; kinase still bound, per cent of control (PIP5K1A (human)): 6.4%; kinase still bound, per cent of control (INSR (human)): 91%; kinase still bound, per cent of control (MARK3 (human)): 100%; kinase still bound, per cent of control (MAP3K12 (human)): 52%; kinase still bound, per cent of control (SRC (human)): 6.7%; kinase still bound, per cent of control (LIMK1 (human)): 22%; kinase still bound, per cent of control (RET (human)): 20%; kinase still bound, per cent of control (MAPK9 (human)): 1.5%; kinase still bound, per cent of control [2]: 40%; kinase still bound, per cent of control (ERBB3 (human)): 9%; kinase still bound, per cent of control (FGFR3 (human)): 84%; kinase still bound, per cent of control (MAPK13 (human)): 100%
2 | CN(C)C/C=C/C(=O)Nc1ccc(C(=O)Nc2cccc(Nc3nccc(-c4cccnc4)n3)c2)cc1 | 100 | 100 | 65 | 100 | 99 | 79 | 100 | 100 | 100 | 12 | 3.8 | 38 | 100 | 78 | 50 | 100 | 100 | 100 | 91 | 100 | kinase still bound, per cent of control (MAP3K13 (human)): 100%; kinase still bound, per cent of control (PIP5K1A (human)): 34%; kinase still bound, per cent of control (INSR (human)): 74%; kinase still bound, per cent of control (MARK3 (human)): 100%; kinase still bound, per cent of control (MAP3K12 (human)): 74%; kinase still bound, per cent of control (SRC (human)): 100%; kinase still bound, per cent of control (LIMK1 (human)): 60%; kinase still bound, per cent of control (RET (human)): 79%; kinase still bound, per cent of control (MAPK9 (human)): 2.5%; kinase still bound, per cent of control [2]: 100%; kinase still bound, per cent of control (ERBB3 (human)): 57%; kinase still bound, per cent of control (FGFR3 (human)): 96%; kinase still bound, per cent of control (MAPK13 (human)): 100%
3 | C=CC(=O)Nc1cc(-n2c(=O)ccc3cnc4ccc(-c5cn[nH]c5)cc4c32)ccc1C | 53 | 5.9 | 1.4 | 100 | 97 | 88 | 100 | 71 | 99 | 4.6 | 65 | 100 | 100 | 86 | 94 | 69 | 83 | 90 | 94 | 84 | kinase still bound, per cent of control (MAP3K13 (human)): 84%; kinase still bound, per cent of control (PIP5K1A (human)): 44%; kinase still bound, per cent of control (INSR (human)): 90%; kinase still bound, per cent of control (MARK3 (human)): 100%; kinase still bound, per cent of control (MAP3K12 (human)): 76%; kinase still bound, per cent of control (SRC (human)): 100%; kinase still bound, per cent of control (LIMK1 (human)): 100%; kinase still bound, per cent of control (RET (human)): 55%; kinase still bound, per cent of control (MAPK9 (human)): 9.6%; kinase still bound, per cent of control [2]: 100%; kinase still bound, per cent of control (ERBB3 (human)): 94%; kinase still bound, per cent of control (FGFR3 (human)): 89%; kinase still bound, per cent of control (MAPK13 (human)): 76%
